Results as given in PubChem BioAssay AID2060327 (Molecular Pharmacology Branch, DTP, NCI, 2025).
Values joined by “and” are separate entries in the source; they are usually repeats but may differ in a detail not shown here. Equal values may be shown once. Values belong to the compound of their own block, whether it stands above or below them.

Tested on: PC-3 multi-cell spheroids, viability
Experiment: Anticancer human tumor PC-3 cell line growth inhibition [IpAb];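 note: spheroids exposed to compounds for 7 days before readout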;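 for viability, T/C: 100% = DMSO vehicle control wells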
Details: for viability, T/C: stronger effect = lower value
From the text: Combinatorial screen of targeted agents with ipatasertib and abemaciclib in multi-cell type tumor spheroids
A high-throughput screen of multi-cell type tumor spheroids was designed to identify active combinations of targeted small molecules and ipatasertib or abemaciclib. Complex spheroids include a stromal component modeled by human endothelial cells (HUVEC) and fibroblasts modeled by human mesenchymal stem cells (MSCs). The concentration ranges selected for each drug and investigational agent were based upon clinically achievable concentrations if the clinical Cmax of the agent was known.
Compounds. The drugs and investigational agents: ipatasertib (NSC767898), abemaciclib(NSC768073), selumetinib (NSC741078), trametinib (758246), adavosertib (NSC754352), everolimus (NSC733504), sapanisertib (NSC764658), vemurafenib (NSC761431), venetoclax (NSC766270), copanlisib (NSC809693), apelisib (NSC765974), palbociblib (NSC758247), vemurafenib (NSC761431), dabrafenib (NSC764134), ravoxertinib (NSC781343), BMS-387032 (NSC767048), sotorasib (NSC818433), talazoparib (NSC767125) and afursertib (NSC778305), were obtained from the National Cancer Institute (NCI) Developmental Therapeutics Program Chemical Repository. The FDA-approved anticancer drug set is available from the NCI Developmental Therapeutics Program. […] The stock solutions were prepared in dimethyl sulfoxide (DMSO, Sigma-Aldrich, St. Louis, MO, cat. D2650) at 800-fold the tested concentration and stored at -70 degrees C prior to their use. All drugs and investigational agents were tested over a range starting from a high concentration at or near the clinical Cmax and decreasing in half-log increments. If the clinical Cmax for an agent had not been determined, the highest concentration tested was 10 microM.
NCI60 Cell Culture. NCI60 cell lines were obtained from the NCI Developmental Therapeutics Program Tumor Repository. For each lot of cells, the Repository performed Applied Biosystems AmpFLSTR Identifiler testing with PCR amplification to confirm consistency with the published Identifier STR profile for each cell line. Cells were kept in continuous culture for no more than 20 passages. The optimal seeding densities for each of the cell lines at each time point assessed were determined prior to performing the concentration response studies. Briefly, the NCI60 human tumor lines were grown as monolayers in RPMI 1640 medium supplemented with 10% FBS and 2 mmol/L L-glutamine.
An additional 9 lines were from the NCI60 cell line panel including MDA-MB-231 breast carcinoma, MDA-MB-468 breast carcinoma, MCF7 breast carcinoma, Hs578T breast carcinoma, MALME-3M melanoma, SK-MEL-2 melanoma, SK-OV-3 ovarian carcinoma, DU-145 prostate carcinoma, PC-3 prostate carcinoma, all cell lines along with major genetic alterations are listed on Table 2. Pooled donor human umbilical vein endothelial cells (HUVEC, Lonza, cat. CC-2519) and human mesenchymal stem cells (hMSC, Lonza, cat. PT-2501) were purchased from Lonza (Walkersville, MD).
PDMR cell lines were grown in complete medium (DC medium): Dulbecco's modified Eagle's medium (DMEM)/F12 supplemented with 5% fetal bovine serum (FBS), 2 mM L-glutamine, 100 U/mL penicillin and 100 µg/ml streptomycin, 0.4 µg/ml hydrocortisone, 10 ng/ml epidermal growth factor (EGF) recombinant human protein, 24 µg/mL adenine, and 0.1 mg/mL primocin. During culture from frozen stock vials, PDMR cells were cultured in the same medium containing 10 µM Y-27632 (see Table 3). The PDCs were cultured in complete DMEM/F12 media without 10 microM Y-27632 dihydrochloride for at least two passages prior to the screen. The pooled donor HUVEC and hMSC were cultured in endothelial cell growth medium 2 (PromoCell, Heidelberg, Germany, cat. C-22011) and mesenchymal stem cell growth medium 2 (PromoCell, cat. C-28009), respectively. For all experiments, HUVEC and hMSC were used at passages </=5.
[…]

IC50 (curve of compound): > 3 µM
Structure (SMILES): Cn1cnc2c(F)c(Nc3ccc(Br)cc3Cl)c(C(=O)NOCCO)cc21
viability, T/C (compound 0.00949 µM): 105% and 99.8%
viability, T/C (compound 0.03 µM): 113% and 107%
viability, T/C (compound 0.0949 µM): 96.4% and 95.3%
viability, T/C (compound 0.3 µM): 85.1% and 96%
viability, T/C (compound 0.949 µM): 91.9% and 91%
viability, T/C (compound 3 µM): 65.1% and 73.2%

IC50 (curve of compound): 8.63 µM and > 10 µM
Structure (SMILES): Cn1nccc1Nc1nccc(-c2ccn(C(CO)c3ccc(Cl)c(F)c3)c(=O)c2)n1 (stereo not given)
viability, T/C (compound 0.0316 µM): 98.1% and 104%
viability, T/C (compound 0.1 µM): 99.6% and 97.7%
viability, T/C (compound 0.316 µM): 90.7% and 104%
viability, T/C (compound 1 µM): 119% and 109%
viability, T/C (compound 3.16 µM): 125% and 119%
viability, T/C (compound 10 µM): 41.7% and 92.9%

More lines, now with the values behind:

Structure (SMILES): Cc1nc(NC(=O)N2CCCC2C(N)=O)sc1-c1ccnc(C(C)(C)C(F)(F)F)c1 (stereo not given)
viability, T/C (compound 0.0316 µM): 82.8% and 73.3%
viability, T/C (compound 0.1 µM): 78.5% and 59.6%
viability, T/C (compound 0.316 µM): 50.1% and 53.2%
viability, T/C (compound 1 µM): 49.3% and 48%
viability, T/C (compound 3.16 µM): 44% and 47.7%
viability, T/C (compound 10 µM): 15.2% and 14.2%
IC50 (curve of compound): 0.849 µM and 1.07 µM

Structure (SMILES): Cn1ncc(Cl)c1-c1cc(C(=O)NC(CN)Cc2cccc(F)c2)sc1Cl (stereo not given)
viability, T/C (compound 0.0316 µM): 89.7% and 88.1%
viability, T/C (compound 0.1 µM): 62.9% and 60.5%
viability, T/C (compound 0.316 µM): 43.6% and 36.2%
viability, T/C (compound 1 µM): 23% and 19.2%
viability, T/C (compound 3.16 µM): 17.9% and 16.2%
viability, T/C (compound 10 µM): 0.14% and 0.16%
IC50 (curve of compound): 0.212 µM and 0.165 µM

Structure (SMILES): Cn1ncnc1[C@H]1c2n[nH]c(=O)c3cc(F)cc(c23)N[C@@H]1c1ccc(F)cc1
viability, T/C (compound 0.000316 µM): 96.7% and 95.8%
viability, T/C (compound 0.001 µM): 87.8% and 95.3%
viability, T/C (compound 0.00316 µM): 74.8% and 63%
viability, T/C (compound 0.01 µM): 53.3% and 58.5%
viability, T/C (compound 0.0316 µM): 43.7% and 50.4%
viability, T/C (compound 0.1 µM): 43.8% and 39%
IC50 (curve of compound): 0.0163 µM and 0.0191 µM

Structure (SMILES): Cn1cnc2c(F)c(Nc3ccc(Br)cc3Cl)c(C(=O)NOCCO)cc21 + CC(C)NCC(C(=O)N1CCN(c2ncnc3c2C(C)CC3O)CC1)c1ccc(Cl)cc1
IC50 (curve of first compound, second compound 0.1 µM): > 3 µM
IC50 (curve of first compound, second compound 0.316 µM): < 0.00949 µM
IC50 (curve of first compound, second compound 1 µM): < 0.00949 µM
IC50 (curve of first compound, second compound 3.16 µM): < 0.00949 µM
IC50 (curve of first compound, second compound 10 µM): < 0.00949 µM
viability, T/C (second compound 0.1 µM, first compound 0.00949 µM): 83.2%
viability, T/C (second compound 0.1 µM, first compound 0.03 µM): 73.6%
viability, T/C (second compound 0.1 µM, first compound 0.0949 µM): 88.3%
viability, T/C (second compound 0.1 µM, first compound 0.3 µM): 78.9%
viability, T/C (second compound 0.1 µM, first compound 0.949 µM): 70%
viability, T/C (second compound 0.1 µM, first compound 3 µM): 55.6%
viability, T/C (second compound 0.316 µM, first compound 0.00949 µM): 46.5%
viability, T/C (second compound 0.316 µM, first compound 0.03 µM): 45%
viability, T/C (second compound 0.316 µM, first compound 0.0949 µM): 47.3%
viability, T/C (second compound 0.316 µM, first compound 0.3 µM): 44.5%
viability, T/C (second compound 0.316 µM, first compound 0.949 µM): 45%
viability, T/C (second compound 0.316 µM, first compound 3 µM): 37.1%
viability, T/C (second compound 1 µM, first compound 0.00949 µM): 25.6%
viability, T/C (second compound 1 µM, first compound 0.03 µM): 27.1%
viability, T/C (second compound 1 µM, first compound 0.0949 µM): 24.1%
viability, T/C (second compound 1 µM, first compound 0.3 µM): 20.8%
viability, T/C (second compound 1 µM, first compound 0.949 µM): 19.9%
viability, T/C (second compound 1 µM, first compound 3 µM): 17.6%
viability, T/C (second compound 3.16 µM, first compound 0.00949 µM): 8.45%
viability, T/C (second compound 3.16 µM, first compound 0.03 µM): 6.53%
viability, T/C (second compound 3.16 µM, first compound 0.0949 µM): 7.72%
viability, T/C (second compound 3.16 µM, first compound 0.3 µM): 7.02%
viability, T/C (second compound 3.16 µM, first compound 0.949 µM): 8%
viability, T/C (second compound 3.16 µM, first compound 3 µM): 6.09%
viability, T/C (second compound 10 µM, first compound 0.00949 µM): 12.9%
viability, T/C (second compound 10 µM, first compound 0.03 µM): 12.2%
viability, T/C (second compound 10 µM, first compound 0.0949 µM): 11.5%
viability, T/C (second compound 10 µM, first compound 0.3 µM): 12.1%
viability, T/C (second compound 10 µM, first compound 0.949 µM): 11.4%
viability, T/C (second compound 10 µM, first compound 3 µM): 10.7%
